Experimental data taken from patent publication US20250074901A1, “NOVEL HETEROARYL COMPOUNDS” (ICAGEN, LLC, priority 2021, published 2025).

Target: T1, Kv7.2 (Homo sapiens, UniProt O43526)
T1 construct: expressed in transfected cells
Assay: Activation of Kv7.2 (in vitro assay, concentration response curve)
Type: cell-based
Conditions: for Emax: Kv7.2 activation max %; for EC50: activation of Kv7.2
Summary of the method: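 Agonist activity was measured in vitro across a range of compound concentrations and plotted as a sigmoidal concentration–response curve. EC50 is the concentration giving 50% of that compound's own maximal response (Emax).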

SMILES	Emax [%]	EC50 [nM]
O=C(NCc1ccnc(OCC(F)(F)F)c1)NCC1CCC1 [Example 21, 1-(cyclobutylmethyl)-3-[[2-(2,2,2-trifluoroethoxy)pyridin-4-yl]methyl]urea]	52	190
O=C(NCc1ccnc(OC(F)F)c1)N[C@@H]1CCC[C@H](C(F)(F)F)C1 (racemic) [Example 138, 1-[[2-(difluoromethoxy)pyridin-4-yl]methyl]-3-[rac-(1R,3S)-3-(trifluoromethyl)cyclohexyl]urea]	40	100
O=C(NCc1ccnc(OC(F)F)c1)NC1CCCCC1(O)C(F)(F)F (stereo not drawn) [Example 147, 1-[[2-(difluoromethoxy)pyridin-4-yl]methyl]-3-[2-hydroxy-2-(trifluoromethyl)cyclohexyl]urea]	56	540
C[C@]1(O)CCCC[C@@H]1NC(=O)NCc1ccnc(OC(F)F)c1 (racemic) [Example 148, 1-[[2-(difluoromethoxy)pyridin-4-yl]methyl]-3-[rac-(1R,2R)-2-hydroxy-2-methylcyclohexyl]urea]	64	5070
CC(C)(C)CC1(NC(=O)NCc2ccnc(OC(F)F)c2)CC1 [Example 44, 1-[[2-(difluoromethoxy)pyridin-4-yl]methyl]-3-[1-(2,2-dimethylpropyl)cyclopropyl]urea]	75	480
O=C(NCc1ccnc(OC(F)F)c1)NC1CCC2C1C2(F)F (racemic) [Example 73, 1-[[2-(difluoromethoxy)pyridin-4-yl]methyl]-3-[rac-(1R,5R)-6,6-difluoro-2-bicyclo[3.1.0]hexanyl]urea]	49	250
O=C(NCc1ccnc(OCC(F)(F)F)c1)N[C@H]1CC[C@@H](C(F)(F)F)C1 (racemic) [Example 79, 1-[rac-(1R,3S)-3-(trifluoromethyl)cyclopentyl]-3-[[2-(2,2,2-trifluoroethoxy)pyridin-4-yl]methyl]urea]	55	100
O=C(NCc1ccnc(OC(F)F)c1)NC1(C2CCC2)CC1 [Example 50, 1-(1-cyclobutylcyclopropyl)-3-[[2-(difluoromethoxy)pyridin-4-yl]methyl]urea]	56	300
Cc1cccc(NC(=O)NCc2ccnc(OC(F)F)c2)c1 [Example 126, 1-[[2-(difluoromethoxy)pyridin-4-yl]methyl]-3-(3-methylphenyl)urea]	50	650
CC(C)(C)C(O)CNC(=O)NCc1ccnc(OC(F)F)c1 (stereo not drawn) [Example 95, 1-[[2-(difluoromethoxy)pyridin-4-yl]methyl]-3-(2-hydroxy-3,3-dimethylbutyl)urea]	43	1160
O=C(NCc1ccnc(OCC2CC2)c1)N[C@H]1C[C@H](C(F)(F)F)C1 [Example 55, 1-[[2-(cyclopropylmethoxy)pyridin-4-yl]methyl]-3-[(1r,3r)-3-(trifluoromethyl)cyclobutyl]urea]	51	300
O=C(NCc1ccnc(OC(F)F)c1)NC12CCC(C(F)(F)F)(CC1)CC2 [Example 68, 1-[[2-(difluoromethoxy)pyridin-4-yl]methyl]-3-[4-(trifluoromethyl)-1-bicyclo[2.2.2]octanyl]urea]	66	2550
O=C(NCc1ccnc(OC(F)F)c1)N[C@@H]1CC[C@H]2CCC[C@H]21 [Example 76, 1-[(1R,3aR,6aR)-1,2,3,3a,4,5,6,6a-octahydropentalen-1-yl]-3-[[2-(difluoromethoxy)pyridin-4-yl]methyl]urea]	79	20
O=C(NCc1ccnc(OC(F)F)c1)NC1(CC(F)(F)F)CC1 [Example 110, 1-[[2-(difluoromethoxy)pyridin-4-yl]methyl]-3-[1-(2,2,2-trifluoroethyl)cyclopropyl]urea]	40	1230
CC1(NC(=O)NCc2ccnc(OC(F)F)c2)CCC(F)(F)C1 (stereo not drawn) [Example 142, 1-[[2-(difluoromethoxy)pyridin-4-yl]methyl]-3-(3,3-difluoro-1-methylcyclopentyl)urea]	40	1030
O=C(NCc1ccnc(OC(F)F)c1)N[C@@H]1CCC(F)(F)C1 [Example 115, 1-[(1R)-3,3-difluorocyclopentyl]-3-[[2-(difluoromethoxy)pyridin-4-yl]methyl]urea]	48	330
O=C(NCc1ccnc(OC(F)F)c1)Nc1cccc(Cl)n1 [Example 84, 1-(6-chloropyridin-2-yl)-3-[[2-(difluoromethoxy)pyridin-4-yl]methyl]urea]	42	210
O=C(NCc1ccnc(OCC(F)F)c1)N[C@H]1C[C@H](C(F)(F)F)C1 [Example 56, 1-[[2-(2,2-difluoroethoxy)pyridin-4-yl]methyl]-3-[(1r,3r)-3-(trifluoromethyl)cyclobutyl]urea]	56	340

Other lines, results leading:

Emax [%]	EC50 [nM]	SMILES
65	170	O=C(Nc1cccc(Cl)c1F)NC(CO)c1ccnc(OC(F)F)c1 (stereo not drawn) [Example 270, 1-(3-chloro-2-fluorophenyl)-3-[1-[2-(difluoromethoxy)pyridin-4-yl]-2-hydroxyethyl]urea]
59	210	O=C(NCc1ccnc(OCC(F)(F)F)c1)NC12CC(F)(C1)C2 [Example 168, 1-(3-fluoro-1-bicyclo[1.1.1]pentanyl)-3-[[2-(2,2,2-trifluoroethoxy)pyridin-4-yl]methyl]urea]
54	50	O=C(NCc1ccnc(OCC(F)(F)F)c1)Nc1cc(F)ccc1F [Example 245, 1-(2,5-difluorophenyl)-3-[[2-(2,2,2-trifluoroethoxy)pyridin-4-yl]methyl]urea]
39	1880	CC(CNC(=O)NCc1ccnc(OC(F)F)c1)OC(F)F (stereo not drawn) [Example 268, 1-[2-(difluoromethoxy)propyl]-3-[[2-(difluoromethoxy)pyridin-4-yl]methyl]urea]
54	500	O=C(NCc1ccnc(OC(F)F)c1)NC1C2CCC1CC(F)(F)C2 (racemic) [Example 197, 1-[[2-(difluoromethoxy)pyridin-4-yl]methyl]-3-[rac-(1R,5S)-3,3-difluoro-8-bicyclo[3.2.1]octanyl]urea]
58	470	O=C(NCc1ccnc(OCF)c1)NC12CCC(F)(CC1)CC2 [Example 208, 1-(4-fluoro-1-bicyclo[2.2.2]octanyl)-3-[[2-(fluoromethoxy)pyridin-4-yl]methyl]urea]
68	70	O=C(NCc1ccnc(OC(F)F)c1)N[C@H](C1CCC1)C(F)(F)F [Example 241, 1-[(1R)-1-cyclobutyl-2,2,2-trifluoroethyl]-3-[[2-(difluoromethoxy)pyridin-4-yl]methyl]urea]
48	890	O=C(NCc1ccnc(OC(F)F)c1)N[C@@H](CC(F)(F)F)C(F)(F)F [Example 273, 1-[[2-(difluoromethoxy)pyridin-4-yl]methyl]-3-[(2S)-1,1,1,4,4,4-hexafluorobutan-2-yl]urea]
66	460	O=C(NCc1ccnc(OC(F)F)c1)N[C@@H]1[C@H]2CCC(F)(F)[C@H]21 (racemic) [Example 172, 1-[[2-(difluoromethoxy)pyridin-4-yl]methyl]-3-[rac-(1R,5S,6R)-2,2-difluoro-6-bicyclo[3.1.0]hexanyl]urea]
54	500	O=C(NCc1ccnc(OCC(F)CF)c1)N[C@H]1C[C@H](C(F)(F)F)C1 (stereo partly drawn) [Example 214, 1-[[2-(2,3-difluoropropoxy)pyridin-4-yl]methyl]-3-[(1r,3r)-3-(trifluoromethyl)cyclobutyl]urea]
60	2130	O=C(NCc1ccnc(OC(F)F)c1)N[C@@H]1CCC(F)(F)C[C@H]1O (racemic) [Example 154, 1-[[2-(difluoromethoxy)pyridin-4-yl]methyl]-3-[rac-(1R,2R)-4,4-difluoro-2-hydroxycyclohexyl]urea]
46	350	O=C(NCc1ccnc(OCC(F)(F)F)c1)N[C@H]1C[C@@H](F)C1 [Example 269, 1-((1s,3s)-3-fluorocyclobutyl)-3-[[2-(2,2,2-trifluoroethoxy)pyridin-4-yl]methyl]urea]
87	380	O=C(NCc1ccnc(OCC(F)(F)F)c1)NC(C(F)(F)F)C(F)(F)F [Example 285, 1-(1,1,1,3,3,3-hexafluoropropan-2-yl)-3-[[2-(2,2,2-trifluoroethoxy)pyridin-4-yl]methyl]urea]
62	540	O=C(NCc1ccnc(CC(F)(F)F)c1)N[C@H]1CCC[C@@H](C(F)(F)F)C1 (racemic) [Example 276, 1-[rac-(1R,3S)-3-(trifluoromethyl)cyclohexyl]-3-[[2-(2,2,2-trifluoroethyl)pyridin-4-yl]methyl]urea]
59	200	COCC(Oc1cc(CNC(=O)N[C@H]2C[C@H](C(F)(F)F)C2)ccn1)C(F)(F)F (stereo partly drawn) [Example 281, 1-[[2-(1,1,1-trifluoro-3-methoxypropan-2-yl)oxypyridin-4-yl]methyl]-3-[3-(trifluoromethyl)cyclobutyl]urea]
73	720	O=C(NCc1ccnc(OC(F)F)c1)NCC(C(F)(F)F)C(F)(F)F [Example 252, 1-[[2-(difluoromethoxy)pyridin-4-yl]methyl]-3-[3,3,3-trifluoro-2-(trifluoromethyl)propyl]urea]
79	60	O=C(NCc1ccnc(OCC(F)(F)F)c1)N[C@@H]1C[C@@H]2[C@H](C1)C2(F)F [Example 238, 1-[(1R,3s,5S)-6,6-difluoro-3-bicyclo[3.1.0]hexanyl]-3-[[2-(2,2,2-trifluoroethoxy)pyridin-4-yl]methyl]urea]
88	80	O=C(NCc1ccnc(OCC(F)(F)F)c1)NC1CC(C2CC2)C1 (stereo not drawn) [Example 235, 1-(3-cyclopropylcyclobutyl)-3-[[2-(2,2,2-trifluoroethoxy)pyridin-4-yl]methyl]urea]
